According to paper PMC11532403 (Signal Transduction and Targeted Therapy, 2024):

Assays:
[1] = tested on: HEK293T-KIF5B-RET M918T cells; assay: Proliferation assay (CellTiter-Glo); format: cell-based; conditions: Homo sapiens, read-out: Cellular Viability IC50
Method: (§1) The cell lines HEK293T, Baf3, TT cell and NIH-3T3 were obtained from the Cell Resource Center, Peking Union Medical College (PCRC). HEK293T and NIH-3T3 were maintained in DMEM high glucose medium (#C3113-0500, Vivacell) supplemented with 10 % FBS (#10500064, Gibco) and 1 % Penicillin-Streptomycin (#15140122, Gibco). The murine Pro‐B cell line Baf3 was cultured in RPMI 1640 medium (#C3010, Vivacell) supplemented with 10 % FBS, 1 % Penicillin-Streptomycin and 1 ng/mL recombinant murine interleukin-3 (#213-13, PeproTech). All stably transformed BaF3 cells were cultured in RPMI 1640 without IL‐3. The TT MTC cell was grown in Ham's F-12K medium (#21127022, Gibco) supplemented with 10 % FBS and 1 % Penicillin-Streptomycin. Cells were cultured at 37 °C under 5 % CO2 and high humidity conditions.
(§2) KIF5B-RET, CCDC6-RET and mutations were cloned into pCDHL vector and were verified by sequencing. Reah RET expression vectors were separately co‐transfected with psPAX2 and pMD2.G packaging plasmids into 60-70% confluent HEK 293T cells maintained in 2 mL of culture medium in six‐well plates using Polyethyleneimine (PEI) transfection grade. Virus containing media was harvested after 48 h and filtered with 0.45 μm membrane and stored at -80 °C prior to infection. For infection of Ba/F3 cells, 1 mL of viral supernatant and 8 μg/mL polybrene were added to 5 million cells per well in six‐well plates. Infected cells were selected with the addition of 1 μg/mL puromycin for 2 weeks in RPMI-1640/ 10% FBS/ 1 ng/mL IL-3 medium. Subsquently, puromycin-resistant cells were cultured in IL-3-free medium for 1 week and RET fusion proteins were confirmed by immunoblot analysis.
(§3) Cell viability was assessed by luminescence using CellTiter-Glo 2.0 assay (Promega). IC50 curve fitting was performed using GraphPad Prism 9.0.

[2] = tested on: HEK293T-KIF5B-RET WT cells; assay: Proliferation assay (CellTiter-Glo); format: cell-based; conditions: Homo sapiens, read-out: Cellular Viability IC50
Method: as §1, §2, §3

[3] = tested on: HEK293T-KIF5B-RET V804M cells; assay: Proliferation assay (CellTiter-Glo); format: cell-based; conditions: Homo sapiens, read-out: Cellular Viability IC50
Method: as §1, §2, §3

CYP2C9 = target: T1, CYP2C9 (Homo sapiens, UniProt P11712); assay: CYP inhibition in human liver microsomes; format: in vitro ADME; conditions: 0.5-25 μM
T1 construct: substrates of different CYP450 enzymes in mixed human liver microsomes; from tissue; host or cells: mixed human liver microsomes
T1 sequence (P11712 whole entry): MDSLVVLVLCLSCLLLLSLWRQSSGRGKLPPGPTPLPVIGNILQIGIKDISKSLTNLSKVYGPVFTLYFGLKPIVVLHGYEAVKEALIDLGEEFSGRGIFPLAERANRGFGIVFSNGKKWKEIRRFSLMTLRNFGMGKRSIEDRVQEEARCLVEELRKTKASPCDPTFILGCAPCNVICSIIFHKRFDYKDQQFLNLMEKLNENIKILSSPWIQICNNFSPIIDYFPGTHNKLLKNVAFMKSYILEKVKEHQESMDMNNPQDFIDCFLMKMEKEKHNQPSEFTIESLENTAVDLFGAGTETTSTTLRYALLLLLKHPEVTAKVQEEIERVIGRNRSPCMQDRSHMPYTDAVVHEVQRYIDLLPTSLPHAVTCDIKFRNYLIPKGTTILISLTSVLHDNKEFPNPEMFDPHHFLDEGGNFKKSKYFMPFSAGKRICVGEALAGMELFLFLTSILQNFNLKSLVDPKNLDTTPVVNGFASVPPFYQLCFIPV

[4] = tested on: RET signaling in BaF3-CCDC6-RET^V804M/M918T cells; assay: RET signaling pathway phosphorylation in cells; format: cell-based
CYP1A2 = target: T2, CYP1A2 (Homo sapiens, UniProt P05177); assay: CYP inhibition in human liver microsomes; format: in vitro ADME; conditions: 0.5-25 μM
T2 construct: substrates of different CYP450 enzymes in mixed human liver microsomes; from tissue; host or cells: mixed human liver microsomes
T2 sequence (P05177 whole entry): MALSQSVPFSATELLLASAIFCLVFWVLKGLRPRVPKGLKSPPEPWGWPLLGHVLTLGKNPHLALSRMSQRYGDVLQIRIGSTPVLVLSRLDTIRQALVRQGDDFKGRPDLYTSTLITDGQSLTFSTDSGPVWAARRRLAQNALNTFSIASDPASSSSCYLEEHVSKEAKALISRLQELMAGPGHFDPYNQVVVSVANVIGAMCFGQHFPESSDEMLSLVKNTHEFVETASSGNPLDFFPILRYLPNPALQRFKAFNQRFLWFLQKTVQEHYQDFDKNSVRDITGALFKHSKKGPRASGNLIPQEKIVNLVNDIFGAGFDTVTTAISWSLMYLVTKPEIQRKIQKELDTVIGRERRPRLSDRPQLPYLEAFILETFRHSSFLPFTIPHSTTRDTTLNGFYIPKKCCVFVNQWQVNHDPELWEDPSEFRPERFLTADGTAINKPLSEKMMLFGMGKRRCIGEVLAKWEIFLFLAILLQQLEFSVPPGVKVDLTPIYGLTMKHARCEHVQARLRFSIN

Pharmacokinetics in rats = format: in vivo, SD rats
CYP3A4 = assay: CYP induction in hepatocytes; format: in vitro ADME, human; conditions: 1, 5, 50 μM, three donors
rat bone marrow cells = assay: In vivo bone marrow micronucleus test
Method: The bone marrow cell micronucleus test was positive in male rats at ≥100 mg/kg/day and in female rats at ≥300 mg/kg/day.

preclinical animals = assay: Preclinical animal long term (repeat-dose) toxicity tests, species not stated; format: in vivo
[5] = tested on: Chinese hamster ovary cells; assay: In vitro chromosome aberration test; format: cell-based
[6] = Plasma protein binding, rapid equilibrium dialysis; format: in vitro ADME; conditions: monkey, read-out: Plasma protein binding rate (converted)
[7] = tested on: Baf3-KIF5B-RET V804M cells; assay: Proliferation assay (CellTiter-Glo); format: cell-based, murine; conditions: Mus musculus, read-out: Cellular Viability IC50
Method: as §1, §2, §3

Baf3-KIF5B-RET WT cells = assay: Proliferation assay (CellTiter-Glo); format: cell-based, murine; conditions: Mus musculus, read-out: Cellular Viability IC50
Method: as §1, §2, §3

TT cells (RET^C634W) = assay: Proliferation assay (CellTiter-Glo); format: cell-based; conditions: Homo sapiens, 72 hours, read-out: Cellular Viability IC50
Method: The cell lines HEK293T, Baf3, TT cell and NIH-3T3 were obtained from the Cell Resource Center, Peking Union Medical College (PCRC). […] All stably transformed BaF3 cells were cultured in RPMI 1640 without IL‐3. […] Cells were cultured at 37 °C under 5 % CO2 and high humidity conditions. […] Cell viability was assessed by luminescence using CellTiter-Glo 2.0 assay (Promega). IC50 curve fitting was performed using GraphPad Prism 9.0.

[8] = tested on: central nervous system (CNS) metastases; assay: Phase 1 trial: intracranial efficacy (RANO-BM); format: in vivo, human; conditions: for Intracranial lesion reduction: case, KIF5B-RET NSCLC, 160 mg BID
Source text: Ongoing assessments are underway to gain a more comprehensive understanding of its intracranial efficacy.

[9] = Pharmacokinetics in beagles; format: in vivo; conditions: both sexes, beagle, dog, plasma, po
Source text: Absorption and elimination in the body may both gradually tend towards saturation. In addition, there was no statistically significant difference in plasma pharmacokinetic parameters between female and male beagles administered SY-5007 by gavage alone.

beagles = assay: 28-day repeat-dose toxicity; format: in vivo
[10] = both sexes, SD, rat, plasma, iv, 1 mg/kg i.v.
[11] = both sexes, SD, rat, plasma, po, gavage 5 mg/kg
[12] = both sexes, SD, rat, plasma, po, gavage 20 mg/kg
[13] = both sexes, SD, rat, plasma, po, gavage 50 mg/kg

Work on `COc1ccc(CN2C3CC2CN(c2ccc(-c4cc(N5CC(C)(O)C5)cn5ncc(C#N)c45)cn2)C3)cn1` [SY-5007, 6-(3-hydroxy-3-methylazetidin-1-yl)-4-(6-(6-((6-methoxypyridin-3-yl)methyl)-3,6-diazabicyclo[3.1.1]heptan-3-yl)pyridin-3-yl)pyrazolo[1,5-a]pyridine-3-carbonitrile] yielded an IC50 [1] of 57 nM, an IC50 [2] of 54.4 nM and an IC50 [3] of 99 nM. For the same compound, the IC50 (CYP2C9) was 6680 nM, the Concentration of saturation [4] was 100 nM and the “Concentration with significant inhibitory effect on RET signaling” value [4] was 10 nM. The IC50 (CYP1A2) was greater than 25000 nM, the clearance (Pharmacokinetics in rats; [10]) was 3.42 mL/min/kg and the half-life (Pharmacokinetics in rats; [10]) was 3.34 h. It also gave a Vd (Pharmacokinetics in rats; both sexes, SD, rat, plasma, iv, 1 mg/kg i.v., read-out: Vss) of 0.697 L/kg, an AUC(0-inf) (Pharmacokinetics in rats; [11]) of 11900 ng·h/mL and a Cmax (Pharmacokinetics in rats; [11]) of 2190 ng/mL. It also gave an AUC(0-inf) (Pharmacokinetics in rats; [12]) of 48100 ng·h/mL, a Cmax (Pharmacokinetics in rats; [12]) of 7150 ng/mL and an AUC(0-inf) (Pharmacokinetics in rats; [13]) of 112000 ng·h/mL. The Cmax (Pharmacokinetics in rats; [13]) was 12600 ng/mL, the half-life (Pharmacokinetics in rats; both sexes, SD, rat, plasma, po, gavage 5-50 mg/kg) was 3.61 to 4.49 h and the MRT inf (Pharmacokinetics in rats; both sexes, SD, rat, plasma, po, gavage 5-50 mg/kg, read-out: MRTINF_obs) was 4.92 to 6.96 h. The bioavailability (Pharmacokinetics in rats; both sexes, SD, rat, plasma, po, gavage 5-50 mg/kg, read-out: Oral bioavailability (F)) was 39.1 to 42.1%, the Tmax (Pharmacokinetics in rats; both sexes, SD, rat, plasma, po, single gavage 5, 20, 50 mg/kg) was 0.25 to 2 h and the “AUC0-24h increase day 7 vs day 1” value (Pharmacokinetics in rats; males, 20 mg/kg once daily 7 days) was 47.3%. The CYP3A4 induction (CYP3A4) was “no induction”, the “Dose at which micronucleus test positive” value (rat bone marrow cells; female rats) was no less than 300 mg/kg/day and the “Dose at which micronucleus test positive” value (rat bone marrow cells; male rats) was no less than 100 mg/kg/day. The “Liver and gallbladder toxicity” value (preclinical animals; preclinical animal long term toxicity tests) was “? Provision is made for the toxicity to the liver and gallbladder found in preclinical animal long term toxicity tests, and for adverse events associated with drugs with a similar mechanism of action to this product”, the “Reproductive toxicity (reproductive tissue weight)” value (preclinical animals; preclinical long toxicity experiments) was “? Preclinical long toxicity experiments observed a weight reduction in reproductive tissue, so relevant regulations are made” and the “Chromosome aberration test result” value [5] was “negative”. It also gave a fraction unbound [6] of 0.023, an IC50 [7] of 45.3 nM and an IC50 (Baf3-KIF5B-RET WT cells) of 9.65 nM. For the same compound, the IC50 (TT cells (RET^C634W)) was 9.11 nM, the “Intracranial ORR” value ([8]; 2/3 patients with measurable CNS metastases) was 66.7% and the “Intracranial DCR” value ([8]; 3/3 patients) was 100.0%. It also gave an Intracranial lesion reduction ([8]; after 4 weeks) of 40.7%, an Intracranial lesion reduction ([8]; after 12 weeks) of 56.5% and a bioavailability ([9]; 2.5 mg/kg) of 56.6%. For the same compound, the bioavailability ([9]; 5 mg/kg) was 74.1%, the bioavailability ([9]; 10 mg/kg) was 33.9% and the AUC(0-inf) ([9]; gavage 2.5 mg/kg) was 3760 ng·h/mL. It also gave a Cmax ([9]; gavage 2.5 mg/kg) of 758 ng/mL, an AUC(0-inf) ([9]; gavage 5 mg/kg) of 9850 ng·h/mL and a Cmax ([9]; gavage 5 mg/kg) of 1630 ng/mL. It also gave an AUC(0-inf) ([9]; gavage 10 mg/kg) of 9030 ng·h/mL, a Cmax ([9]; gavage 10 mg/kg) of 1440 ng/mL and a Tmax ([9]; gavage 2.5, 5, 10 mg/kg) of 0.5 to 2 h. For the same compound, the half-life ([9]; gavage 2.5-10 mg/kg) was 4.81 to 7.53 h, the MRT inf ([9]; gavage 2.5-10 mg/kg, read-out: MRTINF_obs) was 5.75 to 11.4 h and the “HNSTD” value (beagles; female Beagle, GLP long toxicity study) was 8 mg/kg. For the same compound, the HNSTD (beagles; females, 28 days) was 8 mg/kg, the “HNSTD” value (beagles; male Beagle, GLP long toxicity study) was 4 mg/kg and the HNSTD (beagles; males, 28 days) was 4 mg/kg. For the same compound, the “Bleeding tendency: gastric mucosa and ileum findings” value (beagles; preclinical Beagle dogs, repeated dosing) was “? This drug was found to have gastric mucosal reddening and ileal discolouration in preclinical SD rats and Beagle dogs in repeated dosing tests, so the relevant provisions were made” and the “Electrolyte abnormalities (blood PK)” value (beagles; preclinical Beagle repeated administration) was “? Abnormalities such as blood PK were found in the preclinical SD rat and Beagle repeated administration test of this product, and the relevant regulations were carried out in consideration of the fact that similar mechanism of action drugs have been reported”.
